Experimental data as given in ChEMBL document CHEMBL2062378, “Antimycobacterial activity: a facile three-component [3+2]-cycloaddition for the regioselective synthesis of highly functionalised dispiropyrrolidines” (Bioorg Med Chem Lett, 2012).
In brackets after ≈: the same amount, converted by molar mass.

How the values were obtained:
[1] = system: Mycobacterium tuberculosis; test: Antimycobacterial activity against Mycobacterium tuberculosis H37Rv ATCC 27294 by alamar blue broth microdilution assay; format: functional
Vero = test: Cytotoxicity against african green monkey Vero cells after 72 hrs by MTT assay; format: cell-based; conditions: Chlorocebus sabaeus

Structure (SMILES) | MIC90 [1] [µM] | IC50 (Vero) [mg/L]
COc1ccc(C2CN(C)C3(C(=O)c4ccccc4C3=O)C23Cc2ccccc2C3=O)cc1 (stereo unspecified) | > 6.25 | > 62.5
CN1CC(c2ccc(C(=O)O)cc2)C2(Cc3ccccc3C2=O)C12C(=O)c1ccccc1C2=O (stereo unspecified) | 0.295 (≈ 0.133 µg/mL) | > 62.5
CN1CC(c2ccc(Cl)cc2)C2(Cc3ccccc3C2=O)C12C(=O)c1ccccc1C2=O (stereo unspecified) | 1.2 (≈ 0.528 µg/mL) | > 62.5
CN1CC(c2ccc(C(F)(F)F)cc2)C2(Cc3ccccc3C2=O)C12C(=O)c1ccccc1C2=O (stereo unspecified) | 0.638 (≈ 0.303 µg/mL) | > 62.5
CN1CC(c2ccccc2)C2(Cc3ccccc3C2=O)C12C(=O)c1ccccc1C2=O (stereo unspecified) | 6.22 (≈ 2.53 µg/mL) | > 62.5
NNC(=O)c1ccncc1 [ISONIAZID] | 0.73 (≈ 0.1 µg/mL) | > 62.5
CN1CC(c2cccc([N+](=O)[O-])c2)C2(Cc3ccccc3C2=O)C12C(=O)c1ccccc1C2=O (stereo unspecified) | 0.81 (≈ 0.366 µg/mL) | > 62.5
CN1CC(c2ccc(Br)cc2)C2(Cc3ccccc3C2=O)C12C(=O)c1ccccc1C2=O (stereo unspecified) | 1.37 (≈ 0.667 µg/mL) | > 62.5
CN(C)c1ccc(C2CN(C)C3(C(=O)c4ccccc4C3=O)C23Cc2ccccc2C3=O)cc1 (stereo unspecified) | 3.32 (≈ 1.5 µg/mL) | > 62.5
CN1CC(c2cccc3c2OCO3)C2(Cc3ccccc3C2=O)C12C(=O)c1ccccc1C2=O (stereo unspecified) | 2.42 (≈ 1.09 µg/mL) | > 62.5
CN1CC(c2ccc(OC(F)(F)F)cc2)C2(Cc3ccccc3C2=O)C12C(=O)c1ccccc1C2=O (stereo unspecified) | 0.214 (≈ 0.105 µg/mL) | > 62.5
CN1CC(c2ccc(N3CCOCC3)cc2)C2(Cc3ccccc3C2=O)C12C(=O)c1ccccc1C2=O (stereo unspecified) | 1.22 (≈ 0.598 µg/mL) | > 62.5
CN1CC(c2cncc(-c3ccc(F)cc3)c2)C2(Cc3ccccc3C2=O)C12C(=O)c1ccccc1C2=O (stereo unspecified) | 0.121 (≈ 0.0611 µg/mL) | > 62.5
